# Source: patent US11136320B2, “Fused ring derivative used as FGFR4 inhibitor” (JACOBIO PHARMACEUTICALS CO., LTD., priority 2019, dated 2021)
# Assay: PK analysis of rats
# Format: in vivo
# Details: SD rats, p.o. (10 mg/kg)
structure (smiles),measurement,setting,value
"CSC[C@@H](C)Nc1cc(NC(=O)N2CCCc3cc(CN4CCN(C)CC4=O)c(C=O)nc32)ncc1C#N [Compound 4, (R)—N-(5-Cyano-4-((1-(methylthio)propan-2-yl)amino)pyridin-2-yl)-7-formyl-6-((4-methyl-2-oxopiperazin-1-yl)methyl)-3,4-dihydro-1,8-naphthyridine-1 (2H)-carboxamide]",exposure amount AUC0-24 h and maximum drug concentration in blood Cmax compared with the reference compound,,significantly higher than the reference compound
same,AUC(0-t),"rat, plasma, po, read-out: Curve area AUC0-24 h",4670 ng·h/mL
same,Cmax,"rat, plasma, po, read-out: Drug concentration in blood Cmax",1450 ng/mL
